≈ marks a conversion by molar mass, not a printed value.
Experiments:
Assay type in all cases: functional
[1] = test system: Mus musculus; assay: In vivo efficacy against L1210 leukemic cells, inoculated intraperitoneally in mice at schedule - q.d. 1-9. Dose 100 mg/kg; conditions: route intraperitoneal
[2] = test system: HEp-2; assay: In vitro inhibition of cytopathogenicity induced by HF strain of Herpes Simplex Virus (HSV-1) replicating in human epidermoid carcinoma no.2 (H.Ep-2) cells
[3] = Cytotoxicity to cancer cells (KB cells) in culture was determined and the effective dose that causes 50 % cytotoxicity was reported.; conditions: Homo sapiens, Cancer cell lines; read-out: ED50 (the source's name)
[4] = test system: Mus musculus; assay: In vivo efficacy against L1210 leukemic cells, inoculated intraperitoneally in mice at schedule - q.d. 1-9. Dose 25 mg/kg; conditions: route intraperitoneal
[5] = test system: HEp-2; assay: In vitro inhibition of cytopathogenicity induced by Lederle Chorioallantoic strain of vaccinia virus replicating in human epidermoid carcinoma
[6] = test system: Mus musculus; assay: In vivo efficacy against L1210 leukemic cells, inoculated intraperitoneally in mice at schedule - q.d. 1-9. Dose 50 mg/kg; conditions: route intraperitoneal
[7] = test system: Mus musculus; assay: In vivo efficacy against L1210 leukemic cells, inoculated intraperitoneally in mice at schedule - q.d. 1-9. Dose 200 mg/kg.*-toxic; conditions: route intraperitoneal
[8] = test system: Mus musculus; assay: In vivo efficacy against L1210 leukemic cells, inoculated intraperitoneally in mice at schedule - q.d. 1-9. Dose 100 mg/kg*-toxic; conditions: route intraperitoneal
[9] = test system: Mus musculus; assay: In vivo efficacy against L1210 leukemic cells, inoculated intraperitoneally in mice at schedule - day 1. Dose 400 mg/kg; conditions: route intraperitoneal
[10] = test system: HEp-2; assay: In vitro inhibition of cytopathogenicity induced by Lederle Chorioallantoic strain of vaccinia virus replicating in human epidermoid carcinoma no.2 (H.Ep-2) cells
[11] = test system: Mus musculus; assay: In vivo efficacy against L1210 leukemic cells, inoculated intraperitoneally in mice at schedule - q.d. 1-9. Dose 400 mg/kg.; conditions: route intraperitoneal
[12] = test system: Mus musculus; assay: In vivo efficacy against L1210 leukemic cells, inoculated intraperitoneally in mice at schedule - q.d. 1,5,9. Dose 75 mg/kg*-Diiference in weight change(T-C)by day 5 was -5.6g at 150 mg/kg &[…] at 75 mg/kg
[13] = test system: Mus musculus; assay: In vivo efficacy against L1210 leukemic cells, inoculated intraperitoneally in mice at schedule - q.d. 1,5,9. Dose 38 mg/kg; conditions: route intraperitoneal
[14] = test system: Mus musculus; assay: In vivo efficacy against L1210 leukemic cells, inoculated intraperitoneally in mice at schedule - q.d. 1-9. Dose 38 mg/kg*-toxic; conditions: route intraperitoneal
[15] = test system: Mus musculus; assay: In vivo efficacy against L1210 leukemic cells, inoculated intraperitoneally in mice at schedule - q.d. 1,5,9. Dose 19 mg/kg; conditions: route intraperitoneal
[16] = test system: Mus musculus; assay: In vivo efficacy against L1210 leukemic cells, inoculated intraperitoneally in mice at schedule - q.d. 1 Dose 150 mg/kg.*-Diiference in weight change(T-C)by day 5 was -5.6g at 150 mg/kg &[…] at 75 mg/kg
[17] = test system: Mus musculus; assay: In vivo efficacy against L1210 leukemic cells, inoculated intraperitoneally in mice at schedule - q.d. 1-9. Dose 19 mg/kg*-toxic; conditions: route intraperitoneal
[18] = test system: Mus musculus; assay: In vivo efficacy against L1210 leukemic cells, inoculated intraperitoneally in mice at schedule - q.d. 1. Dose 75 mg/kg*-Diiference in weight change(T-C)by day 5 was -5.6g at 150 mg/kg &[…] at 75 mg/kg
[19] = test system: Mus musculus; assay: In vivo efficacy against L1210 leukemic cells, inoculated intraperitoneally in mice at schedule - q.d. 1-9. Dose 9 mg/kg; conditions: route intraperitoneal

Row | SMILES | Virus rating [2] | EC50 [3] | MIC [2] | T/C [9] | other results
1 | CSc1nc(N)nc2c1nnn2C1CC(CO)C(O)C1O (stereo not given) | 0 VR | > 100 µg/mL | – | – | T/C [1]: 94%
2 | Nc1nc(N)c2ncn(C3CC(CO)C(O)C3O)c2n1 (stereo not given) | 4.6 VR | 19 µg/mL (≈ 67.8 µM) | 0.3 µg/mL (≈ 1.07 µM) | – | T/C [4]: 102%; MIC [5]: 2.3 µg/mL (≈ 8.21 µM); Virus rating [5]: 3.8 VR; T/C [6]: 89%; T/C [7]: 67%; T/C [8]: 70%
3 | Nc1nc(Cl)c2nnn(C3CC(CO)C(O)C3O)c2n1 (stereo not given) | 0.9 VR | 8 µg/mL (≈ 26.6 µM) | 81 µg/mL (≈ 269 µM) | 111% | Virus rating [5]: 0.6 VR
4 | Nc1nc(Cl)c2ncn(C3CC(CO)C(O)C3O)c2n1 (stereo not given) | 1.7 VR | > 100 µg/mL | 10 µg/mL (≈ 33.4 µM) | 104% | MIC [10]: 20 µg/mL (≈ 66.7 µM); Virus rating [10]: 1.2 VR; T/C [6]: 101%; T/C [7]: 67%; T/C [8]: 85%
5 | Nc1nc(N)c2nnn(C3CC(CO)C(O)C3O)c2n1 (stereo not given) | 1.4 VR | > 100 µg/mL | 100 µg/mL (≈ 356 µM) | 97% | –
6 | Nc1nc(O)c2nnn(C3CC(CO)C(O)C3O)c2n1 (stereo not given) | 0 VR | > 100 µg/mL | – | 109% | –
7 | CNc1nc(N)nc2c1ncn2C1CC(CO)C(O)C1O (stereo not given) | 1.3 VR | 18 µg/mL (≈ 61.2 µM) | 320 µg/mL (≈ 1090 µM) | – | –
8 | Nc1nc(S)c2ncn(C3CC(CO)C(O)C3O)c2n1 (stereo not given) | 0 VR | 50 µg/mL (≈ 168 µM) | – | – | T/C [11]: 99%
9 | CSc1nc(N)nc2c1ncn2C1CC(CO)C(O)C1O (stereo not given) | 0.1 VR | > 100 µg/mL | – | – | T/C [1]: 108%
10 | Nc1nc(O)c2ncn(C3CC(CO)C(O)C3O)c2n1 (stereo not given) | 0 VR | > 100 µg/mL | – | – | T/C [12]: 70%; T/C [13]: 92%; T/C [14]: 71%; Virus rating [5]: 0 VR; T/C [15]: 94%; T/C [16]: 75%; T/C [17]: 83%; T/C [18]: 88%; T/C [19]: 101%
11 | Nc1ncnc2c1ncn2[C@@H]1O[C@H](CO)[C@@H](O)[C@@H]1O [VIDARABINE] | 2.2 VR | – | 10 µg/mL (≈ 37.4 µM) | – | –
